Laboratory results from patent publication US20250230193A1, “CYCLIC COMPOUND HAVING SELECTIVE KRAS INHIBITORY EFFECT ON HRAS AND NRAS” (CHUGAI SEIYAKU KABUSHIKI KAISHA, priority 2022, published 2025).

What was measured:
[1] = target: GDP-bound NRAS wild-type protein (Homo sapiens, UniProt P01111); assay: Binding to NRAS by surface plasmon resonance (SPR), Single Cycle Kinetics; details: for NRAS/KRAS (ratio of KD value with respect to NRAS to KD value with respect to KRAS): GDP-bound NRAS wild-type vs GDP-bound KRAS wild-type
Chain of GDP-bound NRAS wild-type protein (P01111 whole entry): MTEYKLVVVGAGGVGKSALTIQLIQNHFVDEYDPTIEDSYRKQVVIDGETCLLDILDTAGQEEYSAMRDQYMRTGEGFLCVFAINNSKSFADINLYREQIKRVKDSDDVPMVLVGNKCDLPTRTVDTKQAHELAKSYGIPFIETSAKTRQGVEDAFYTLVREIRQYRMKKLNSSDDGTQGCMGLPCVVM

[2] = target: GDP-bound HRAS wild-type protein (Homo sapiens, UniProt P01112); assay: Binding to HRAS by surface plasmon resonance (SPR), Single Cycle Kinetics; details: for HRAS/KRAS (ratio of KD value with respect to HRAS to KD value with respect to KRAS): GDP-bound HRAS wild-type vs GDP-bound KRAS wild-type
Chain of GDP-bound HRAS wild-type protein (P01112 whole entry): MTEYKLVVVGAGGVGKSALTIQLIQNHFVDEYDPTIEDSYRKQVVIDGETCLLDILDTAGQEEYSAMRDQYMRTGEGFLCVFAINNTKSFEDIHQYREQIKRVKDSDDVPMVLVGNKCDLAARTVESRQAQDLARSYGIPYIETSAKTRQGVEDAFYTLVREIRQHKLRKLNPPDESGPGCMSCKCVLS

CCC[C@H]1C(=O)N[C@@H]([C@@H](C)CC)C(=O)N(C2CC2)CC(=O)N(C)[C@H]2C/C=C\CCN(C2=O)[C@@H](Cc2ccc(C)cc2)C(=O)N(C)CC(=O)N[C@@H](CCc2ccc(Cl)c(Cl)c2)C(=O)N2C[C@H](OCC)C[C@H]2C(=O)NC2(CC(C)(C)C2)C(=O)N(C)[C@@H](CC2CCC2)C(=O)N(C)[C@H](C(=O)N(C)C)CC(=O)N1C [PP2761]
NRAS/KRAS (ratio of KD value with respect to GDP-bound NRAS wild-type protein to KD value with respect to KRAS) ([1]; class symbols): A (a compound having 10 or more and less than 20 is denoted as A) | HRAS/KRAS (ratio of KD value with respect to GDP-bound HRAS wild-type protein to KD value with respect to KRAS) ([2]; class symbols): A (a compound having 10 or more and less than 20 is denoted as A)

CCCO[C@H]1CCN2C(=O)[C@H](CCc3cc(F)c(C(F)(F)F)c(F)c3)NC(=O)CN(C)C(=O)[C@H](Cc3ccc(C(F)(F)F)cc3)N3CCCC[C@@H](C3=O)N(C)C(=O)CN(C)C(=O)[C@H]([C@@H](C)CC)NC(=O)[C@H](CC(C)C)N(C)C(=O)C[C@@H](C(=O)N3CCOCC3)N(C)C(=O)[C@H](C3CCCC3)N(C)C(=O)C3(CCC3)NC(=O)[C@H]12 [PP1077]
NRAS/KRAS (ratio of KD value with respect to NRAS to KD value with respect to KRAS) ([1]; KD ratio, SPR): B (a compound having 3 or more and less than 10 is denoted as B) | HRAS/KRAS (ratio of KD value with respect to HRAS to KD value with respect to KRAS) ([2]; KD ratio, SPR): B (a compound having 3 or more and less than 10 is denoted as B)

CC[C@H](C)[C@@H]1NC(=O)[C@H](CC)N(C)C(=O)C[C@@H](C(=O)N(C)C)N(CC)C(=O)[C@H](C2CCCC2)N(C)C(=O)C2(CCC2)NC(=O)[C@@H]2C[C@H](N3CCC(F)(F)CC3)CN2C(=O)[C@H](CCc2cc(F)c(C(F)(F)F)c(F)c2)NC(=O)CN(C)C(=O)[C@H](Cc2ccc(C(F)(F)F)cc2)N2CCCC[C@@H](C2=O)N(C)C(=O)CN(C)C1=O [PP0659]
NRAS/KRAS (ratio of KD value with respect to GDP-bound NRAS wild-type protein to KD value with respect to KRAS) ([1]; SPR): B (a compound having 3 or more and less than 10 is denoted as B) | HRAS/KRAS (ratio of KD value with respect to GDP-bound HRAS wild-type protein to KD value with respect to KRAS) ([2]; SPR): B (a compound having 3 or more and less than 10 is denoted as B)

CCCOC[C@H]1C(=O)N[C@@H]([C@@H](C)CC)C(=O)N(C)CC(=O)N(C)[C@H]2C/C=C\CCN(C2=O)[C@@H](Cc2ccc(C)cc2)C(=O)N(C)CC(=O)N[C@@H](CCc2cc(F)c(C(F)(F)F)c(F)c2)C(=O)N2C[C@H](C)C[C@H]2C(=O)NC2(CCCC2)C(=O)N(C)[C@@H](C2CCCC2)C(=O)N(C)[C@H](C(=O)N(C)C)CC(=O)N1C [PP2225]
NRAS/KRAS (ratio of KD value with respect to NRAS to KD value with respect to KRAS) ([1]; SPR): A (a compound having 10 or more and less than 20 is denoted as A) | HRAS/KRAS (ratio of KD value with respect to HRAS to KD value with respect to KRAS) ([2]; SPR): A (a compound having 10 or more and less than 20 is denoted as A)

CCO[C@@H]1C[C@H]2C(=O)NC3(CC(C)(C)C3)C(=O)N(C)[C@@H](C3CCCC3)C(=O)N(C)[C@H](C(=O)N(C)C)CC(=O)N(C)[C@@H](CC(C)C)C(=O)N[C@@H]([C@@H](C)CC)C(=O)N(C3CC3)CC(=O)N(C)[C@H]3C/C=C\CCN(C3=O)[C@@H](Cc3ccc(C)cc3)C(=O)N(C)CC(=O)N[C@@H](CCc3cc(F)c(C(F)(F)F)c(F)c3)C(=O)N2C1 [PP2109]
NRAS/KRAS (ratio of KD value with respect to NRAS to KD value with respect to KRAS) ([1]; SPR): A (a compound having 10 or more and less than 20 is denoted as A) | HRAS/KRAS (ratio of KD value with respect to HRAS to KD value with respect to KRAS) ([2]; SPR): A (a compound having 10 or more and less than 20 is denoted as A)

CCC[C@H]1C(=O)N[C@@H]([C@@H](C)CC)C(=O)N(C)CC(=O)N(C)[C@H]2CCCCN(C2=O)[C@@H](Cc2ccc(C(F)(F)F)cc2)C(=O)N(C)CC(=O)N[C@@H](CCc2cc(F)c(C(F)(F)F)c(F)c2)C(=O)N2C[C@H](OCC)C[C@H]2C(=O)NC2(CCC2)C(=O)N(C)[C@@H](C2CCCC2)C(=O)N(C)[C@H](C(=O)N(C)C)CC(=O)N1C [PP0694]
NRAS/KRAS (ratio of KD value with respect to GDP-bound NRAS wild-type protein to KD value with respect to KRAS) ([1]; SPR): C (A compound having a KD ratio of 0.1 or more and less than 3 is denoted as C) | HRAS/KRAS (ratio of KD value with respect to GDP-bound HRAS wild-type protein to KD value with respect to KRAS) ([2]; SPR): C (A compound having a KD ratio of 0.1 or more and less than 3 is denoted as C)

CC[C@H](C)[C@@H]1NC(=O)[C@H](CC(C)C)N(C)C(=O)C[C@@H](C(=O)N2CCOCC2)N(C)C(=O)[C@H](C2CCCC2)N(C)C(=O)C2(CCCC2)NC(=O)[C@@H]2CCCN2C(=O)[C@H](CCc2cc(F)c(C(F)(F)F)c(F)c2)NC(=O)CN(C)C(=O)[C@H](Cc2ccc(C(F)(F)F)cc2)N2CCCC[C@@H](C2=O)N(C)C(=O)CN(CC)C1=O [PP0545]
NRAS/KRAS (ratio of KD value with respect to GDP-bound NRAS wild-type protein to KD value with respect to KRAS) ([1]; SPR): B (a compound having 3 or more and less than 10 is denoted as B) | HRAS/KRAS (ratio of KD value with respect to GDP-bound HRAS wild-type protein to KD value with respect to KRAS) ([2]; SPR): B (a compound having 3 or more and less than 10 is denoted as B)
